Test results taken from US20220267374A1, “IMMUNITY INDUCER AND PHARMACEUTICAL COMPOSITION FOR PREVENTING OR TREATING AGING-RELATED DISEASES” (priority 2019, published 2022).
Ends that are not written are not given here.

How the values were obtained:
Open field test = assay type: in vivo, C57BL/6 mice; settings: normal diet, s.c. vaccination at 50 weeks of age; vs control vaccine; FIG. 2L
Protocol: C57BL/6 mice bred by feeding a normal diet and administered with peptide vaccine 1 or a control vaccine by subcutaneous injection at a time point of 50 weeks of age were used. Open field tests were performed before and after vaccination (50 and 70 weeks of age). The open field test is a test that measures voluntary activity in a novel environment. Each mouse was placed in an open field and tested for 6 minutes. The total action time (seconds) and average speed (cm/sec) of each mouse during the test were measured. The difference between the measurement results at 50 weeks of age and the measurement results at 70 weeks of age is shown in FIG. 2L. In FIG. 2L, “Cont vac” is a C57BL/6 mouse administered with the control vaccine, and “Gpnmb vac” is a C57BL/6 mouse administered with the peptide vaccine 1.

p19^Arf = assay: Analysis of p19Arf-dependent luciferase activity; assay type: in vivo, p19^Arf-DTR-Luc mouse; settings: HFD-fed p19Arf-DTR-Luc mouse, 21 weeks of age, s.c. vaccination at 13 weeks of age; vs control vaccine; FIG. 2F
GPNMB-positive cells = assay: Analysis of Gpnmb-dependent luciferase activity (in vivo IVIS imaging); parameters: species or system Gpnmb-DTR mouse; settings: HFD-fed Gpnmb-DTR mouse, 16 weeks of age, s.c. vaccination at 8 weeks of age; vs control vaccine; FIG. 2B
Protocol: Gpnmb-DTR mouse bred by feeding normal diet or HFD for 4 weeks, and Gpnmb-DTR mouse bred by feeding HFD for 4 weeks, and then injecting DT (50 μg/kg body weight) at 2-week intervals (12 weeks of age and 14 weeks of age) intraperitoneally twice while continuing to feed HFD (16 weeks of age) were subjected to in vivo luciferase imaging analysis using the IVIS imaging system (Perkin Elmer). Mice were shaved ventrally, anesthetized with isoflurane (Wako Pure Chemicals Industries), and injected intraperitoneally with luciferin (150 mg/kg body weight) according to the manufacturer's instructions (Vivo-Glo; Promega). Luciferase activity was monitored 5 minutes after luciferin administration. Signals were analyzed using Living Image software (Perkin Elmer) to quantify luciferase activity. In FIG. 1B, “Before” is a Gpnmb-DTR mouse before HFD was fed (6 weeks of age), “HFD” is a Gpnmb-DTR mouse that was fed with HFD from 6 weeks of age and bred for 6 weeks (12 weeks of age), and “After DT” is a Gpnmb-DTR mouse that was bred by feeding HFD for 4 weeks and then injecting DT (50 μg/kg body weight) at 2-week intervals (12 weeks of age and 14 weeks of age) intraperitoneally twice while continuing to feed HFD (16 weeks of age). […]

[1] = system: replicative aging adipose precursor cells derived from C57BL/6 mice; assay: ADCC (Antibody-Dependent-Cellular-Cytotoxicity) activity analysis; assay type: cell-based; settings: purified IgG from mice administered with the vaccine; NK effector cells/target cells 1/1; LDH release, 4 hours; FIG. 2E
Protocol: ADCC (Antibody-Dependent-Cellular-Cytotoxicity) was evaluated using a CytoTox 96 non-radioactive cytotoxicity assay kit (Promega). Specifically, natural killer (NK) cells were isolated from C57BL/6 mice as effector cells using Ficoll-Paque Plus (GE Healthcare) and EasySep mouse NK cell isolation kit (STEMCELL). Subsequently, as target cells, replicative aging adipose precursor cells derived from C57BL/6 mice were seeded on a 96-well plate so as to have 10^4 cells per well. Subsequently, purified IgG antibody obtained from C57BL/6 mice bred by feeding HFD from 4 weeks of age and administered with peptide vaccine 1 or a control vaccine by subcutaneous injection at a time point of 8 weeks of age was added to each well, and incubated at 37° C. for 30 minutes. After incubation, NK cells were seeded in each well so that a ratio of the cell number of effector cells to the target cells (effector cells/target cells) was 1/1. Subsequently, the plates were incubated at 37° C. for an additional 4 hours. Subsequently, lactate dehydrogenase released in a supernatant was detected using a microtiter plate reader (iMark microplate reader, Bio-Rad). To evaluate cell death, a ratio of lysed cells to the total number of cultured cells was calculated. In FIG. 2E, “Cont vac” is a C57BL/6 mouse administered with the control vaccine, and “Gpnmb vac” is a C57BL/6 mouse administered with peptide vaccine 1.

GPNMB protein = assay: Western blotting analysis of adipose tissue; assay type: in vivo, C57BL/6 mice; settings: HFD-fed mice, 16 weeks of age, s.c. vaccination at 8 weeks of age, vs control vaccine, FIGS. 2C, 2D
Protocol: For adipose tissue collected from C57BL/6 mice (16 weeks of age) bred by feeding HFD from 4 weeks of age and administered with peptide vaccine 1 or a control vaccine by subcutaneous injection at a time point of 8 weeks of age, whole-cell lysates were prepared in lysis buffer (containing 10 mmol/L of Tris-HCl (pH 8), 140 mmol/L of sodium chloride, 5 mmol/L of EDTA, 0.025% of NaN3, 1 w/v % of Triton X-100, 1 w/v % of deoxycholic acid, 0.1 w/v % of SDS, 1 mmol/L of phenylmethylsulfonyl fluoride (PMSF), 5 μg/mL of leypeptin, 2 μg/mL of aprotinin, 50 mmol/L of NaF, and 1 mmol/L of […]). Then the lysates (40 to 50 μg) was separated by SDS-PAGE, the protein was transferred to a PVDF membrane (Millipore), and this was incubated with a primary antibody, followed by horseradish peroxidase (Jackson)-binding anti-rabbit immunoglobulin G (Jackson ImmunoResearch). GPNMB and β-actin were detected by enhanced chemiluminescence (Amersham). As a primary antibody, an anti-GPNMB antibody (AF2330, R & D Systems) (1/1000 dilution) was used, and as a control, anti-β-actin antibody (#4967, Cell Signaling) (1/5000 dilution) was used. As a secondary antibody, peroxidase-binding AffiniPure goat anti-rabbit IgG (H+L) (111-035-003, Jackson ImmunoResearch) (1/10000 dilution) was used. […]

Sequence: RRGDGRWKD (also: KLH conjugate; listed as Mus musculus) [peptide vaccine 1, peptide of positions 63 to 71 of mouse GPNMB protein]
- results in the open field test (total action time, average speed; difference 50 vs 70 weeks of age) (Open field test): significantly improved
- p19Arf-dependent luciferase activity in visceral adipose tissue (p19^Arf): decrease
- Gpnmb-dependent luciferase activity (GPNMB-positive cells): decreased
- antibody-dependent cellular cytotoxicity (ADCC activity) [1]: exhibits antibody-dependent cellular cytotoxicity (ADCC activity)
- expression amount of GPNMB protein (GPNMB protein): decreased
